The source of these data is US20020068351A1, “Human brain phosphodiesterase” (SmithKline Beecham Corporation, priority 1994, published 2002).

Entries after “also recorded” stand apart in the source; their conditions may differ.

As a reminder, the Km is the substrate concentration at which the rate is half of its maximum. One may read the IC50 as the concentration that gives 50% inhibition.

Data set [1] deals with hPDE IVB (Homo sapiens, UniProt Q07343). Put plainly: PDE assay: cAMP hydrolysis by recombinant hPDE IVB in yeast lysate supernatant.
hPDE IVB, sequence (Q07343 1-564 isoform Q07343-2): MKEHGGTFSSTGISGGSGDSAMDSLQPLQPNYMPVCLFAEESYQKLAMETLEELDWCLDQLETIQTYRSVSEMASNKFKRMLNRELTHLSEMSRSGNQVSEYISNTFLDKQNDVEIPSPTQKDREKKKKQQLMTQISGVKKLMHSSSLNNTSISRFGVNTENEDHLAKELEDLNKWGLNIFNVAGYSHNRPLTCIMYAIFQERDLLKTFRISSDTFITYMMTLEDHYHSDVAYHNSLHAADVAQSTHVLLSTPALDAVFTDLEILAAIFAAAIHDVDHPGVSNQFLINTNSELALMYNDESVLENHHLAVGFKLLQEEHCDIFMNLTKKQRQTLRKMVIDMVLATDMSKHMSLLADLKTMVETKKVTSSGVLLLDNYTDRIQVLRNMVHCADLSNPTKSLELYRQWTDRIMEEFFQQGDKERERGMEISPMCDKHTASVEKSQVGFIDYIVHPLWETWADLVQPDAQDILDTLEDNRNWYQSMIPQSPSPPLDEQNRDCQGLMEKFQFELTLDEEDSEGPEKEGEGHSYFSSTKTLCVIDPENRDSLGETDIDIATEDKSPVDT
Method: PDE Assays and Inhibitor Studies—PDE activity was determined in 100,000×g supernatant fractions of yeast cell lysates. […] For studies in which the IC50s of various inhibitors were determined, compounds were present in the reaction mixture at concentrations that varied over three orders of magnitude. Reactions were conducted at 30° C. for 30 min.
Appropriate corrections were made for the changes in specific activity of the substrate. […] Statistical comparisons between one-site and two-site fits were conducted via F test.
Data set [2] has as its system wild-type yeast cells. Put plainly: Yeast control: killing of wild-type cells.
Method: (§1) For heat shock, cells are replicated from the master plate onto two plates each containing the same medium as describe above, one of which is preheated to 55° C. for 1 hour. Cells transferred to the preheated plate are incubated at 55° C. for 5 minutes and then shifted to 30° C. For monitoring growth on acetate, the master plate is replicated to a plate containing the same medium except 2% potassium acetate instead of glucose. Growth is scored after five days at 5 days at 30° C.
Data set [3] has as its system PDE-deficient mutant cells expressing the human PDE IV. Description: Yeast growth arrest assay in PDE-deficient cells expressing human PDE IV.
Method: as §1

Turning to `Nc1nc2c(ncn2[C@@H]2O[C@@H]3COP(=O)(O)O[C@H]3[C@H]2O)c(=O)[nH]1` [cGMP], in data set [1] (hPDE IVB, substrate concentrations as great as 10 mM), the “hydrolysis of cGMP as substrate” value is given as “very poor activity; also recorded: No detectable hydrolysis”. Moreover, the Michaelis-Menten constant (Km) in data set [1] (substrate of hPDE IVB) is more than 10 mM.

Turning to `COc1ccc(C2CNC(=O)C2)cc1OC1CCCC1` (stereo not drawn) [rolipram], the killing effect result in data set [2] and in data set [3] (under normal growth conditions) was “no killing effect” throughout. For the same molecule, the cytotoxicity entry in data set [3] (under growth arrest conditions) is listed as “cytotoxic”.

Regarding `CN/C(=N\c1ccc(C2=NNC(=O)CC2C)cc1)NC#N` (stereo not drawn) [siquazodan, siguazodan], in data set [1], the concentration for half-maximal inhibition (IC50) was more than 30 µM.
